# Test results taken from PubChem BioAssay (NCI).
#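 Abbreviation: GI50, concentration required for 50% inhibition of growth. The concentration for full growth arrest is given as TGI.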
# Tests used:
# Assay in all cases: NCI anticancer screen, dose series, 384-well format
# [1] = test system: HL-60(TB) leukemia
# [2] = test system: HS 578T breast
# [3] = test system: SW-620 colon
# [4] = test system: MOLT-4 leukemia
# [5] = test system: NCI-H23 lung
# [6] = test system: NCI-H226 lung
# [7] = test system: TK-10 renal
# [8] = test system: HOP-92 NSCLC
# [9] = test system: 786-0 renal
# [10] = test system: NCI-H522 lung
# [11] = test system: DU-145 prostate
# [12] = test system: A549 NSCLC
# [13] = test system: HCT-15 colon
# [14] = test system: HOP-62 NSCLC
# [15] = test system: CAKI-1 renal
# [16] = test system: OVCAR-4 ovarian
# [17] = test system: NCI/ADR-RES ovarian
# [18] = test system: MDA-MB-231 breast
# [19] = test system: SK-MEL-5 melanoma
# [20] = test system: MDA-MB-468 breast
# [21] = test system: SNB-19 CNS
# [22] = test system: OVCAR-8 ovarian
# [23] = test system: IGROV1 ovarian
# [24] = test system: COLO 205 colon
# [25] = test system: SK-OV-3 ovarian
# [26] = test system: M14 melanoma
# [27] = test system: UO-31 renal
# [28] = test system: SR leukemia
# [29] = test system: UACC-257 melanoma
# [30] = test system: SF-268 CNS
# [31] = test system: PC-3 prostate
# [32] = test system: SN12C renal
# [33] = test system: U251 glioblastoma
# [34] = test system: BT-549 breast
# [35] = test system: UACC-62 melanoma
# [36] = test system: SNB-75 CNS
# [37] = test system: LOX IMVI melanoma
# [38] = test system: EKVX NSCLC
# [39] = test system: NCI-H322M lung
# [40] = test system: K-562 leukemia
# [41] = test system: NCI-H460 NSCLC
# [42] = test system: HT29 colon
# [43] = test system: OVCAR-3 ovarian
# [44] = test system: T-47D breast
# [45] = test system: SF-539 CNS
# [46] = test system: OVCAR-5 ovarian
# [47] = test system: A498 renal
# [48] = test system: RPMI-8226 leukemia
# [49] = test system: SK-MEL-28 melanoma
# [50] = test system: RXF 393 renal
# [51] = test system: KM12 colon
# [52] = test system: SK-MEL-2 melanoma
# [53] = test system: MCF7 breast
# [54] = test system: ACHN renal
# [55] = test system: HCT-116 colon
# [56] = test system: MALME-3M melanoma
# [57] = test system: HCC-2998 colon
# [58] = test system: SF-295 CNS
# [59] = test system: MDA-MB-435 melanoma
smiles,measurement,setting,value
C[C@@H]1C[C@H](N)C[C@H](c2ccncc2NC(=O)c2ccc(F)c(-c3c(F)cccc3F)n2)C1,GI50,[1],3.6 µM
same,TGI,[1],16.3 µM
same,GI50,[2],10.2 µM
same,TGI,[2],21.9 µM
same,GI50,[3],14.3 µM
same,TGI,[3],27.4 µM
same,GI50,[4],3.21 µM
same,TGI,[4],12.5 µM
same,GI50,[5],14.5 µM
same,TGI,[5],27.7 µM
same,GI50,[6],4.79 µM
same,TGI,[6],20.8 µM
same,GI50,[7],12.5 µM
same,TGI,[7],25.1 µM
same,GI50,[8],6.4 µM
same,TGI,[8],19.7 µM
same,GI50,[9],6.99 µM
same,TGI,[9],19.5 µM
same,GI50,[10],12.5 µM
same,TGI,[10],25.1 µM
same,GI50,[11],15.7 µM
same,TGI,[11],29.3 µM
same,GI50,[12],12.5 µM
same,TGI,[12],25.5 µM
same,GI50,[13],9.74 µM
same,TGI,[13],23.8 µM
same,GI50,[14],12.8 µM
same,TGI,[14],25.5 µM
same,GI50,[15],3.78 µM
same,TGI,[15],17.2 µM
same,GI50,[16],17.2 µM
same,TGI,[16],31.1 µM
same,GI50,[17],16.7 µM
same,TGI,[17],30.6 µM
same,GI50,[18],13.3 µM
same,TGI,[18],26.1 µM
same,GI50,[19],1.74 µM
same,TGI,[19],4.28 µM
same,GI50,[20],3.42 µM
same,TGI,[20],10.2 µM
same,GI50,[21],15.8 µM
same,TGI,[21],29.3 µM
same,GI50,[22],14.3 µM
same,TGI,[22],27.5 µM
same,GI50,[23],7.37 µM
same,TGI,[23],19.9 µM
same,GI50,[24],4.64 µM
same,TGI,[24],11.9 µM
same,GI50,[25],14.3 µM
same,TGI,[25],27.4 µM
same,GI50,[26],3.43 µM
same,TGI,[26],7.63 µM
same,GI50,[27],13.5 µM
same,TGI,[27],26.4 µM
same,GI50,[28],1.76 µM
same,TGI,[28],3.56 µM
same,GI50,[29],1.65 µM
same,TGI,[29],3.03 µM
same,GI50,[30],5.86 µM
same,TGI,[30],15.9 µM
same,GI50,[31],4.76 µM
same,TGI,[31],17.3 µM
same,GI50,[32],14.4 µM
same,TGI,[32],27.6 µM
same,GI50,[33],10.5 µM
same,TGI,[33],22.4 µM
same,GI50,[34],5.53 µM
same,TGI,[34],19.2 µM
same,GI50,[35],8.71 µM
same,TGI,[35],22 µM
same,GI50,[36],7.54 µM
same,TGI,[36],21.2 µM
same,GI50,[37],4.22 µM
same,TGI,[37],15.6 µM
same,GI50,[38],6.36 µM
same,TGI,[38],19.3 µM
same,GI50,[39],14.4 µM
same,TGI,[39],27.5 µM
same,GI50,[40],2.17 µM
same,TGI,[40],10.9 µM
same,GI50,[41],6.02 µM
same,TGI,[41],17.2 µM
same,GI50,[42],5.3 µM
same,TGI,[42],14.9 µM
same,GI50,[43],11.6 µM
same,TGI,[43],23.9 µM
same,GI50,[44],4.76 µM
same,TGI,[44],17.7 µM
same,GI50,[45],7.93 µM
same,TGI,[45],20.8 µM
same,GI50,[46],11.7 µM
same,TGI,[46],24 µM
same,GI50,[47],4.81 µM
same,TGI,[47],18.1 µM
same,GI50,[48],0.0942 µM
same,TGI,[48],0.674 µM
same,GI50,[49],5.54 µM
same,TGI,[49],10.8 µM
same,GI50,[50],3.18 µM
same,TGI,[50],11.9 µM
same,GI50,[51],10.4 µM
same,TGI,[51],22.3 µM
same,GI50,[52],13.4 µM
same,TGI,[52],26.2 µM
same,GI50,[53],7.02 µM
same,TGI,[53],20.3 µM
same,GI50,[54],13.8 µM
same,TGI,[54],26.9 µM
same,GI50,[55],7.07 µM
same,TGI,[55],19.9 µM
same,GI50,[56],1.49 µM
same,TGI,[56],3.11 µM
same,GI50,[57],1.9 µM
same,TGI,[57],4.02 µM
same,GI50,[58],16.9 µM
same,TGI,[58],30.6 µM
same,GI50,[59],11.5 µM
same,TGI,[59],24 µM
